Source: patent publication US20260256751A1, “COMBINATION OF BETA-2-ADRENERGIC RECEPTOR AGONISTS AND GLP-1 RECEPTOR AGONISTS FOR USE IN TREATING HYPERGLYCAEMIA” (ATROGI AB, priority 2023, published 2026)

How the values were obtained:
[1] = tested on: differentiated L6-myotubes; assay: Glucose uptake screen (Biological example 1 of WO 2019/053427); assay type: cell-based; details: compound at 10 μM, activity relative to isoproterenol at 10 μM, read-out: Biological example 1 of WO 2019/053427 (GU)
Method: (§1) Compounds described in publications referenced and incorporated herein were screened in accordance with the procedures outlined in Biological example 1 and Biological example 2 of WO 2019/053427.
L6-myoblasts were grown in Dulbecco's Modified Eagle's Medium (DMEM) containing 1 g/L glucose supplemented with 10% fetal bovine serum (FBS), 2 mM L-glutamine, 50 U/mL penicillin, […] streptomycin and 10 mM HEPES. Cells were plated at 1x 10^5 cells per mL in 24-well plates. After reaching 90% confluence the cells were grown in medium containing 2% FBS for 7 days where upon cells differentiated into myotubes. The differentiated L6-myotubes were serum-starved overnight in medium containing 0.5% fatty-acid free BSA and stimulated with Compound A at a final concentration of 1×10^−5 M in the presence of the selective β2-adrenergic receptor antagonist ICI-118551. After 1 h 40 min the cells were washed with warm, glucose free medium twice and another portion of agonist was added to the glucose free medium. After another 20 min of incubation the cells were exposed to 50 nM ^3H-2-deoxyglucose for 10 min before washed in ice cold glucose free medium three times and lysed in 400 µl/well 0.2 M NaOH for 1 h at 60° C. The cell lysate was mixed with 4 ml scintillation buffer (Emulsifier Safe, Perkin Elmer) and the radioactivity was detected in a P-counter (Tri-Carb 4810TR, Perkin Elmer).

[2] = tested on: differentiated L6-myotubes; assay: cAMP production relative to isoprenaline (Biological example 2 of WO 2019/053427); assay type: cell-based; details: 0.25 h, compound at 10 μM, activity relative to isoproterenol at 10 μM
Description: For example, the level of cAMP production induced by a given compound can be determined by reference to the amount induced by a defined concentration of that compound relative to that induced by the same concentration of a reference compound, such as isoprenaline, using techniques known to those skilled in the art (e.g. following the protocol as described in the biological examples provided in WO 2019/053427, i.e. in cells, such as differentiated L6-myotubes, having been stimulated with isoprenaline or the compound with a final concentration of 1×10^−5 M, for 15 min in stimulation buffer, such as HBSS supplemented with 1% BSA, 5 mM HEPES and 1 mM IBMX, at pH 7.4).
as §1

Compound | Emax at 10 µM [1] [%] | Emax at 10 µM [2] [%]
CCCCNCC(O)c1ccc(O)c(Cl)c1 (stereo not drawn) [Compound 20, 2-(butylamino)-1-(3-chloro-4-hydroxyphenyl)-1-ethanol] | 25 to 50 | < 25
CC12CC(C1)[C@@H]([C@H](O)c1cncc(F)c1)N2 [Compound 223, (R)-{(S)-1-methyl-2-azabicyclo[2.1.1]hex-3-yl}(5-fluoro-3-pyridyl)methanol] | 25 to 50 | < 25
O[C@@H](CNC[C@H]1CC[C@H](O)CC1)c1cncc(F)c1 [Compound 274, (R)-1-(5-fluoro-3-pyridyl)-2-({[(1r,4R)-4-hydroxycyclohexyl]meth-yl}amino)-1-ethanol] | < 25 | < 25
CC(C)(C[C@H]1CC[C@@H](NS(=O)(=O)C(F)(F)F)CC1)NC[C@H](O)c1cncc(F)c1 [Compound 522, (R)-2-{1,1-dimethyl-2-[(1s,4S)-4-(trifluoromesylamino)cychloehxyl]ethylamino}-1-(5-fluoro-3-pyridyl)-1-ethanol] | > 75 | < 25
CCC[C@H]1CCC[C@H]([C@H](O)c2ccc(F)c(F)c2)N1 [Compound 67, (R)-[(2R,6S)-6-propyl-2-piperidyl](3,4-difluorophenyl)methanol] | 25 to 50 | < 25
O[C@@H](CNCC[C@H]1CC[C@H](OCc2ccccc2)CC1)c1cccc(F)c1 [Compound 288, (R)-1-(m-fluorophenyl)-2-{2-[(1r,4R)-4-(benzyloxy)cyclohexyl]eth-ylamino}-1-ethanol] | 25 to 50 | < 25
O[C@H](c1cccc(F)c1)C12CCC(CCc3ccc(OC(F)(F)F)cc3)(CC1)N2 [Compound 546, (R)-(m-fluorophenyl){4-[2-(p-trifluoromethoxyphenyl)ethyl]-7-azabicyclo[2.2.1]hept-1-yl}methanol] | < 25 | < 25
O[C@H](c1cccc(F)c1)C12CCC(CCCc3ccccc3)(CC1)N2 [Compound 536, (R)-(m-fluorophenyl){4-(3-phenylpropyl)-7-azabicyclo[2.2.1]hept-1-yl}methanol] | > 75 | 25 to 50
CS(=O)(=O)N[C@H]1CC[C@H](CNC[C@H](O)c2cccc(F)c2)CC1 [Compound 311, (R)-1-(m-fluorophenyl)-2-({[(1r,4R)-4-(mesylamino)cyclohexyl]methyl}amino)-1-ethanol] | 50 to 75 | < 25
CC1(C)CCC[C@H]([C@H](O)c2cccc(F)c2)N1 [Compound 102, (R)-[(R)-6,6-dimethyl-2-piperidyl](m-fluorophenyl)methanol] | 50 to 75 | < 25
O[C@@H](c1cccc(F)c1)[C@H]1CC[C@@H](Cc2ccc(Cl)cc2)N1 [Compound 391, (S)-{(2R,5S)-5-[(p-chlorophenyl)methyl]-2-pyrrolidinyl}(m-fluorophenyl)methanol] | 50 to 75 | < 25
O[C@@H](CNC[C@H]1CC[C@@H](OCc2ccccc2)CC1)c1cncc(F)c1 [Compound 263, (R)-1-(5-fluoro-3-pyridyl)-2-({[(1s,4S)-4-(benzyloxy)cyclohexyl]methyl}amino)-1-ethanol] | > 75 | < 25
CC1(C)CCC[C@@H]([C@H](O)c2ccccc2F)N1 [Compound 193, (R)-[(S)-6,6-dimethyl-2-piperidyl](o-fluorophenyl)methanol] | > 75 | 25 to 50
O[C@@H](CNCCC[C@H]1CC[C@H](O)CC1)c1cncc(F)c1 [Compound 305, (R)-1-(5-fluoro-3-pyridyl)-2-{3-[(1r,4S)-4-hydroxycyclohexyl]propylamino}-1-ethanol] | 25 to 50 | < 25
O[C@@H](c1cccc(F)c1)C12CCC(CCc3ccc(OC(F)(F)F)cc3)(CC1)N2 [Compound 544, (S)-(m-fluorophenyl){4-[2-(p-trifluoromethoxyphenyl)ethyl]-7-azabicyclo[2.2.1]hept-1-yl}methanol] | < 25 | < 25
CCCCNCC(O)c1ccc(F)c(N)c1 (stereo not drawn) [Compound 44, 1-(3-amino-4-fluorophenyl)-2-(butylamino)-1-ethanol] | 50 to 75 | < 25

Compound | Emax at 10 µM [1] [%] | Emax at 10 µM [2] [%]
COC(=O)[C@H]1CC[C@H](CCC(C)(C)NC[C@H](O)c2cncc(F)c2)CC1 [Compound 342, methyl (1R,4r)-4-{3-[(R)-2-(5-fluoro-3-pyridyl)-2-hydroxyethylamino]-3-methylbutyl}cyclohexanecarboxylate] | > 75 | < 25
CCC[C@H]1CCC[C@H]([C@H](O)c2cncc(F)c2)N1 [Compound 140, (R)-[(2R,6S)-6-propyl-2-piperidyl](5-fluoro-3-pyridyl)methanol] | < 25 | < 25
CC(C)(NC[C@H](O)c1cccc(F)c1)[C@H]1CC[C@H](NS(C)(=O)=O)CC1 [Compound 385, (R)-1-(m-fluorophenyl)-2-{1-methyl-1-[(1r,4R)-4-(mesylamino)cyclohexyl]ethylamino}-1-ethanol] | 50 to 75 | < 25
CC(C)(NC[C@H](O)c1cncc(F)c1)[C@H]1CC[C@@H](OCc2ccccc2)CC1 [Compound 282, (R)-1-(5-fluoro-3-pyridyl)-2-{1-methyl-1-[(1s,4S)-4-(benzyloxy)cylcohexyl]eth-ylamino}-1-ethanol] | 50 to 75 | < 25
CC(C)(C[C@H]1CC[C@@H](NC(=O)OC(C)(C)C)CC1)NC[C@H](O)c1cccc(C(F)(F)F)n1 [Compound 450, (1R,4s)-4-(2-{(S)-2-hydroxy-2-[6-(trifluoromethyl)-2-pyridyl]ethylamino}-2-methylpropyl)cyclohexyl 2-methyl-2-propanecarbamate] | < 25 | < 25
CO[C@H]1CC[C@H](C[C@@H]2CC[C@H]([C@@H](O)c3ccccc3F)N2)CC1 [Compound 336] | 25 to 50 | < 25
CCC[C@H]1CCC[C@H]([C@H](O)c2ccc(F)cc2)N1 [Compound 92, (R)-[(2R,6S)-6-propyl-2-piperidyl](p-fluorophenyl)methanol] | 25 to 50 | < 25
CC(C)(CC[C@H]1CC[C@H](O)CC1)NC[C@H](O)c1cccc(F)c1 [Compound 290, (R)-2-{1,1-dimethyl-3-[(1r,4S)-4-hydroxycyclohexyl]propyl-amino}-1-(m-fluorophenyl)-1-ethanol] | 25 to 50 | < 25
COC(=O)[C@H]1CC[C@@H](CCC(C)(C)NC[C@H](O)c2cncc(F)c2)CC1 [Compound 349, methyl (1S,4s)-4-{3-[(R)-2-(5-fluoro-3-pyridyl)-2-hydroxyethylamino]-3-methylbutyl}cyclohexanecarboxylate] | > 75 | 25 to 50
CC(C)(C)NC[C@H](O)c1cccc(C(F)(F)F)n1 [Compound 397, (S)-2-(tert-butylamino)-1-[6-(trifluoromethyl)-2-pyridyl]-1-ethanol] | > 75 | < 25
CC(=O)N(Cc1ccccc1)[C@H]1CC[C@H](C[C@@H]2CC[C@H]([C@H](O)c3cccc(F)c3)N2)CC1 [Compound 482, N-[(1S,4r)-4-({(2S,5R)-5-[(R)-(m-fluorophenyl)hydroxymethyl]-2-pyrrolidinyl}methyl)cyclohexyl]-N-benzylacetamide] | < 25 | < 25
CCCCNC[C@H](O)c1cccc(F)c1 [Compound 47, (R)-2-(butylamino)-1-(m-fluorophenyl)-1-ethanol] | 50 to 75 | < 25
CC(C)(NC[C@H](O)c1cncc(F)c1)[C@H]1CC[C@@H](C(=O)O)CC1 [Compound 323, (1S,4s)-8-[(R)-2-(5-fluoro-3-pyridyl)-2-hydroxyethylamino]-7-hydroxy-p-menthan-7-one] | 25 to 50 | 50 to 75
CCC[C@H]1CCC[C@H]([C@H](O)c2cc(F)cc(F)c2)N1 [Compound 68, (R)-[(2R,6S)-6-propyl-2-piperidyl](3,5-difluorophenyl)methanol] | 50 to 75 | < 25
CCCCNCC(O)c1cc(Cl)c(N)c(Cl)c1 (stereo not drawn) [Compound 29, 1-(4-amino-3,5-dichlorophenyl)-2-(butylamino)-1-ethanol] | > 75 | 25 to 50
Oc1ccc(C(O)CNCCCC(F)(F)F)cc1 (stereo not drawn) [Compound 31, 1-(p-hydroxyphenyl)-2-(4,4,4-trifluorobutylamino)-1-ethanol] | 50 to 75 | –
